According to the NIST ThermoML archive (doi:10.1021/acs.jced.7b00278):
Numbers after ± are expanded uncertainties.

Tests used:
[1] = refractive index (Na D-line) (dimensionless); details: 298.15 K; 101.33 kPa; Liquid; Standard Abbe refractometry
[2] = 298.15 K; 101.33 kPa; Liquid; Vibrating tube method
[3] = wn = mass fraction of the nth substance listed; details: 298.15 K, 101 kPa, Liquid, Vibrating tube method

refractive index [1]	mass density [2]	mass density ([3]; w1 = 0.0115)	mass density ([3]; w1 = 0.05)	mass density ([3]; w1 = 0.101)	mass density ([3]; w1 = 0.2011)	mass density ([3]; w1 = 0.3051)	mass density ([3]; w1 = 0.3993)	SMILES
1.4659 ± 0.0009	1075.12 ± 6.3 kg/m3	–	–	–	–	–	–	CCCC(=O)[O-].[NH3+]CCO [2-hydroxy ethylammonium butanoate]
–	–	999.43 ± 2.2 kg/m3	1006.63 ± 8.8 kg/m3	1016.39 ± 11 kg/m3	1033.12 ± 8.9 kg/m3	1046.73 ± 7.6 kg/m3	1058.12 ± 7.3 kg/m3	CCCC(=O)[O-].[NH3+]CCO [2-hydroxy ethylammonium butanoate] + O
